Square brackets hold non-standard residues; d marks the D form. Ends that are not written are not given here.
How the values were obtained:
human dermal fibroblasts = experiment: UVA-induced intracellular amplification of ROS (dihydrorhodamine 123, flow cytometry); assay type: cell-based; details: for effect on UVA-induced intracellular amplification of ROS compared with vitamin C (ascorbate): peptide 10^-8M vs vitamin C 10^-2M, FIG. 2; for effect on UVA-induced intracellular amplification of ROS ("oxidative stress"): peptide 10^-8 M, 24 h pre-incubation, UVA 10 J/cm^2, human dermal fibroblasts, FIG. 1, p<0.001
Procedure: The modulating effect of the tripeptides Lys-Pro-Val (KPV), Lys-D-Pro-Thr (KPT) and Thyrotropin Releasing Hormones (TRH, Protirelin, Thyoliberin, pGlu-His-Pro) was examined on human dermal fibroblasts that were seeded into 3.5 cm^2 tissue culture dishes in a density of 150,000 per dish in […] medium. Two days after seeding the cells, the medium supplemented with 10% foetal calf serum, 1% L-glutamine and 1% penicillin/streptomycin was exchanged with serum-free RPMI medium and pre-incubated for 24 hours with KPV, […] Subsequently, the cells were exposed to a physiological dose of UVA radiation (10 J/cm^2). Immediately after radiation, the cells were incubated with 5 μM dihydrorhodamine 123 plus 5 mM glucose in phosphate buffer (PBS) for 30 minutes. Subsequently, the cells were trypsinized, resuspended in PBS with 5 mM glucose and analyzed by means of flow cytometry (FACS, FACSCalibur with 488 nm argon laser). The above dihydrorhodamine probe is oxidized in the presence of intracellular ROS into green fluorescent […] and, thus, can be measured fluorometrically. A total of 10×10^3 cells per probe were analyzed and evaluated using CELL-QUEST software. The median of the FL-1 channel was used as parameter for the intracellular ROS amount, since it represents the maximum number of cells with the highest fluorescence. Duplicate and triplicate analyses were carried out and all assays were reproduced three times in independent experiments.

B16.F1 melanoma cells = experiment: Extracellular melanin accumulation (in situ melanin assay, optical density 405 nm); assay type: cell-based, mouse; details: 72 hrs; for melanotropic effect (extracellular melanin accumulation): peptides at 10^-6, 10^-8 and 10^-10 M, FIG. 3
From the text: It is also preferred that the compounds of the invention have no or merely a negligible melanotropic effect. “Melanotropic effect” means that the compound induces the extracellular melanin accumulation in a cell assay in accordance with the method described in the appended example 2 and/or in accordance with the method described in Siegrist and Eberle (Anal. Biochem. 1986; 159; 191-197), title “In situ melanin assay for MSH using mouse B16 melanoma cells in culture”. “No or negligible” means that the mean melanin accumulation which is induced by the compounds of the invention exceeds the mean melanin accumulation which is induced by at least one of the two compounds as exemplified in Example 2 by not more than about 40%, 30%, 20%, 15%, 10%, 5%, 2.5%, 2% or 1%, preferably under conditions which equate to or are identical with those set out in Example 2. The skilled person is able to justify which assay conditions/assays equate with the assay/conditions exemplified in the appended examples. The melanin accumulation evaluated in Example 2 is depicted in FIG. 3. The effect of the compounds of the invention on extracellular melanin accumulation is thus determinable by the methods disclosed herein.
To exclude a potential melanotropic effect of KPT and KPV, 2500 B16.F1 melanoma cells were seeded out on 96-well tissue culture plates in quintuplicate at a density of 2500 cells/well in regular culture medium. On the next day routine medium was changed to medium containing the above peptides at 10^−6, 10^−8 and 10^−10 M vs. medium containing the superpotent MSH analogue NDP-α-MSH (10^−8 M). The latter served as positive control while cells without any other stimulus served as negative control. Cells were then cultured for 72 hrs followed by photometric measurement of the optical density (wavelength 405 nm) of each well. This procedure measures the amount of extracellular melanin produced by the cells according to the well-established and described methodology by Siegrist & Eberle, Anal. Biochem. 1986; 159: 191-197.

Compound | antioxidative protective effects in human dermal fibroblasts (summary statement) (human dermal fibroblasts) | effect on UVA-induced intracellular amplification of ROS compared with vitamin C (ascorbate) (human dermal fibroblasts) | effect on UVA-induced intracellular amplification of ROS ("oxidative stress") (human dermal fibroblasts) | melanotropic effect (extracellular melanin accumulation) (B16.F1 melanoma cells) | melanotropic effect (extracellular melanin accumulation), positive control (B16.F1 melanoma cells; 10^-8 M)
NC(=O)[C@@H]1CCCN1C(=O)[C@H](Cc1c[nH]cn1)NC(=O)[C@@H]1CCC(=O)N1 [TRH, L-Pyroglutamyl-L-histidyl-L-prolinamid] | show antioxidative protective effects | comparable with that of vitamin C | suppressed UVA-induced intracellular amplification of ROS |  | 
Lys-Pro-Val [KPV] | show antioxidative protective effects |  | suppressed UVA-induced intracellular amplification of ROS | did not have any melanotropic effect | 
Lys-[dP]-Thr [KPT] | show antioxidative protective effects | comparable with that of vitamin C | suppressed UVA-induced intracellular amplification of ROS | did not have any melanotropic effect | 
NDP-α-MSH [reference compound] |  |  |  |  | p<0.001 vs. control

— patent US20130252903A1, “COMPOSITIONS FOR REDUCING OXIDATIVE STRESS AND USES THEREOF” (Universitaetsklinikum Muenster, priority 2007, published 2013)
